From patent US9051591B2, “Bacterium of enterobacteriaceae family producing L-aspartic acid or L-aspartic acid-derived metabolites and a method for producing L-aspartic acid or L-aspartic acid-derived metabolites” (AJINOMOTO CO., INC., priority 2010, dated 2015)

Key:
ADH (Polaromonas sp.) = biological target: T1, ADH (Polaromonas sp.) (Polaromonas sp., UniProt Q126F5); assay: Screening of substrate specificity, ADH; conditions: 20 mM substrate; for Amination activity, ADH: relative to oxaloacetate, […] NADH, pH 9
T1 sequence (Q126F5 1-267): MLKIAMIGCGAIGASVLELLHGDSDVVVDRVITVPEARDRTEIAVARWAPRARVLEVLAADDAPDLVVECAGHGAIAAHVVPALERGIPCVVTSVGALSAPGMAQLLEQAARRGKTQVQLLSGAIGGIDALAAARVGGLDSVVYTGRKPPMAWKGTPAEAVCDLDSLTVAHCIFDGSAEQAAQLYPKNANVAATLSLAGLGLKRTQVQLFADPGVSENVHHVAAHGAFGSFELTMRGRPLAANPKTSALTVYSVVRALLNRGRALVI

ADH-Re = assay: Screening of substrate specificity, ADH-Re; conditions: 20 mM substrate; for Amination activity, ADH-Re: relative to oxaloacetate, […] NADH, pH 9
[1] = biological target: T2, purified ADH (Polaromonas sp.) (Polaromonas sp., UniProt Q126F5); assay: Screening of alternative substrates for purified ADH; conditions: 10 mM, […] NADH, 50 mM NH4Cl, 29° C.
T2 sequence (Q126F5 1-267): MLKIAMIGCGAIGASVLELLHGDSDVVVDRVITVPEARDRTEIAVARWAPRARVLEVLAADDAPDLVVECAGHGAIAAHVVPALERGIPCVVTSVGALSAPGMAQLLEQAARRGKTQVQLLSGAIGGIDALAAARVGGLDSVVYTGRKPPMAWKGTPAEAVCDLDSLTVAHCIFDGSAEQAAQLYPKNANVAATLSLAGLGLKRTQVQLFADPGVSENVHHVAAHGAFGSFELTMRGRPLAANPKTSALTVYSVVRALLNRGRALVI

[2] = biological target: T3, Polaromonas sp. aspartate dehydrogenase (Polaromonas sp., UniProt Q126F5); assay: Regulatory properties of the ADH; conditions: for effect on ADH activity in forward and reverse reactions: addition of 1 mM, 29° C., pH 9.8
T3 sequence (Q126F5 1-267): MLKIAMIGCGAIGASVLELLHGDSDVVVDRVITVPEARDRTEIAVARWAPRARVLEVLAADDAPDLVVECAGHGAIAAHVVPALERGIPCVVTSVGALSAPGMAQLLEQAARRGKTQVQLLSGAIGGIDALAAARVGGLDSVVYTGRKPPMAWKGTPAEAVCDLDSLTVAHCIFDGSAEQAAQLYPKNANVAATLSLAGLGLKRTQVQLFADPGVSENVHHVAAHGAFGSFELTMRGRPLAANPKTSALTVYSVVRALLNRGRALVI

[3] = biological target: T4, Ralstonia eutropha ADH-Re (Cupriavidus necator, UniProt Q0K391); conditions: amination; summary range over Hill and Michaelis-Menten fits
T4 sequence (Q0K391 with tags, fused parts or gaps): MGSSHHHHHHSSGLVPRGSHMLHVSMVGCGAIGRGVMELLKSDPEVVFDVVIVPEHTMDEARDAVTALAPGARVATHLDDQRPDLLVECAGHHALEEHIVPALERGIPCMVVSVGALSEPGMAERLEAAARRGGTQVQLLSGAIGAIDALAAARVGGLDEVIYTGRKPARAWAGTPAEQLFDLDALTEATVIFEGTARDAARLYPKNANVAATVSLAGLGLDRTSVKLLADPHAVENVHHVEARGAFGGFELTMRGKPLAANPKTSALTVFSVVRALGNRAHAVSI

[4] = biological target: Rhodopseudomonas palustris ADH1-Rp (Rhodopseudomonas palustris, UniProt Q2J3V1); assay: Kinetic parameters of the Rhodopseudomonas palustris AspDH 1; conditions: Aspartic acid oxidative deamination
Polaromonas sp. ADH = biological target: T5, Polaromonas sp. ADH (Polaromonas sp., UniProt Q126F5); conditions: Aspartic acid oxidative deamination; Michaelis-Menten plots
T5 sequence (Q126F5 1-267): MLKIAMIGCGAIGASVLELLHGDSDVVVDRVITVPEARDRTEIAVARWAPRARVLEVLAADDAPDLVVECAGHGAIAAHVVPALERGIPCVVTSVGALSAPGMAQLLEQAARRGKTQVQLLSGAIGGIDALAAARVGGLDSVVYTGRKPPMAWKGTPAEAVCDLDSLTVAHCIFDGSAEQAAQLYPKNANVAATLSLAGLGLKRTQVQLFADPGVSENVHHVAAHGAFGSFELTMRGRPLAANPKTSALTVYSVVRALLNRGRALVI

ADH-Bj = assay: Screening of substrate specificity, ADH-Bj; conditions: relative to aspartate; 20 mM substrate, 2 mM NADP^+, pH 9.8
ADH1-Rp = assay: Screening of substrate specificity, ADH1-Rp; conditions: relative to aspartate; 20 mM substrate, 2 mM NADP^+, pH 9.8
[5] = biological target: Bradyrhizobium japonicum ADH-Bj (Bradyrhizobium diazoefficiens, UniProt Q89FY1); assay: Kinetic parameters of the Bradyrhizobium japonicum ADH-Bj; conditions: Aspartate oxidative deamination
[6] = substrate: O=C(O)CC(=O)C(=O)O; assay: purified protein, by the assay type; conditions: other: Oxaloacetate reductive amination; Michaelis-Menten plots
[7] = substrate: NC(=O)c1ccc[n+]([C@@H]2O[C@H](COP(=O)([O-])OP(=O)(O)OC[C@H]3O[C@@H](n4cnc5c(N)ncnc54)[C@H](O)[C@@H]3O)[C@@H](O)[C@H]2O)c1; assay: purified protein, by the assay type
[8] = substrate: N[C@@H](CC(=O)O)C(=O)O; assay: purified protein, by the assay type; conditions: other: Aspartate oxidative deamination; Michaelis-Menten plots
[9] = relative to aspartate, 2 mM NAD^+, pH 9.8
[10] = other: Aspartate oxidative deamination, Michaelis-Menten plots
[11] = other: Aspartic acid oxidative deamination
[12] = other: Aspartic acid oxidative deamination, Michaelis-Menten plots
[13] = other: Aspartate oxidative deamination

## CCC(=O)C(=O)O [α-ketobutyrate]
ADH (Polaromonas sp.)
  Amination activity, ADH: na (no activity (<0.2%))
ADH-Re
  Amination activity, ADH-Re: na (no activity (<0.2%))
[1]
  ability to replace oxaloacetate in forward reaction: No activity

## O=C(O)CC(O)C(=O)O (centres unmarked) [malate]
[2]
  effect on ADH activity in forward and reverse reactions: not significantly affected

## CC(=O)SCCNC(=O)CCNC(=O)[C@H](O)C(C)(C)COP(=O)(O)OP(=O)(O)OC[C@H]1O[C@@H](n2cnc3c(N)ncnc32)[C@H](O)[C@@H]1OP(=O)(O)O [acetyl-coenzyme A]
[2]
  effect on ADH activity in forward and reverse reactions: not significantly affected

## NADPH
[3]
  Km: 0.39 to 0.9 mM

## CCC(C)C(=O)C(=O)O (centres unmarked) [ketomethylvaleriate]
ADH (Polaromonas sp.)
  Amination activity, ADH: na (no activity (<0.2%))
ADH-Re
  Amination activity, ADH-Re: na (no activity (<0.2%))
[1]
  ability to replace oxaloacetate in forward reaction: No activity

## N[C@@H](CC(=O)O)C(=O)O [Aspartic acid]
[2]; addition of 100 mM
  decrease of enzyme activity in forward reaction: 3 times
[4]
  Km: 13.4 ± 0.5 mM
  Vmax: 5.61 ± 0.08 µmol/min/mg
  kcat: 2.87 ± 0.033 s⁻¹
Polaromonas sp. ADH
  Km: 1.3 ± 0.2 mM
  Vmax: 26.2 ± 0.9 µmol/min/mg
  kcat: 12 ± 0.333 s⁻¹
ADH (Polaromonas sp.); [9]
  Deamination activity, ADH: 100%
ADH-Re; [9]
  Deamination activity, ADH-Re: 100%
ADH-Bj
  Deamination activity, ADH-Bj: 100 ± 11%
ADH1-Rp
  Deamination activity, ADH1-Rp: 100 ± 8%
[5]
  Km: 27 ± 4 mM
  Vmax: 14.3 ± 0.9 µmol/min/mg
  kcat: 7.33 ± 0.5 s⁻¹

## CC(C)(COP(=O)(O)OP(=O)(O)OC[C@H]1O[C@@H](n2cnc3c(N)ncnc32)[C@H](O)[C@@H]1OP(=O)(O)O)[C@@H](O)C(=O)NCCC(=O)NCCS [coenzyme A]
[2]
  effect on ADH activity in forward and reverse reactions: not significantly affected

B1: Ralstonia eutropha ADH-Re (Cupriavidus necator H16) (protein)
chain: MGSSHHHHHHSSGLVPRGSHMLHVSMVGCGAIGRGVMELLKSDPEVVFDVVIVPEHTMDEARDAVTALAPGARVATHLDDQRPDLLVECAGHHALEEHIVPALERGIPCMVVSVGALSEPGMAERLEAAARRGGTQVQLLSGAIGAIDALAAARVGGLDEVIYTGRKPARAWAGTPAEQLFDLDALTEATVIFEGTARDAARLYPKNANVAATVSLAGLGLDRTSVKLLADPHAVENVHHVEARGAFGGFELTMRGKPLAANPKTSALTVFSVVRALGNRAHAVSI
[6]
  Km: 3.3 ± 0.4 mM
  kcat: 58.3 ± 2.33 s⁻¹
[7]; [10]
  Km: 1.7 ± 0.4 mM
  Vmax: 37 µmol/min/mg
  kcat: 18.7 ± 1.5 s⁻¹
[8]
  Km: 13 ± 3 mM
  Vmax: 23 µmol/min/mg
  kcat: 11.5 ± 1 s⁻¹
  kcat/Km: 833 M⁻¹ s⁻¹

B2: Rhodopseudomonas palustris ADH1-Rp (Rhodopseudomonas palustris HaA2) (protein)
chain: MRSGRAPQRVAIAGLGAIGKAIARELDRGLDGLTLGAVASGDPEKHRAFLDGLRTTPPVVPLDQLHAHADLVIEAAPSRLLRAIVEPFVSRGRTAIVLSAAALLQNEDLIDLANLNGGQIIVPTGALIGLDAVTAAAVGTIHSVRMITRKPVDGLRGAPFIVDNGIDLDGLREPLKLFEGTAREAGKGFPANLNVAVALSLAGIGPDRTMVEIWADPGVTRNTHRIEVDADSARFAMTIENVPSDNPRTGLITPLSVIALLRKQSAALRVGT
[7]; [11]
  Km: 7.0 ± 0.3 mM
  Vmax: 3.11 µmol/min/mg
  kcat: 1.58 ± 0.0333 s⁻¹
  kcat/Km: 227 ± 15 M⁻¹ s⁻¹

B3: Polaromonas sp. ADH (Polaromonas sp. JS666) (protein)
chain: MLKIAMIGCGAIGASVLELLHGDSDVVVDRVITVPEARDRTEIAVARWAPRARVLEVLAADDAPDLVVECAGHGAIAAHVVPALERGIPCVVTSVGALSAPGMAQLLEQAARRGKTQVQLLSGAIGGIDALAAARVGGLDSVVYTGRKPPMAWKGTPAEAVCDLDSLTVAHCIFDGSAEQAAQLYPKNANVAATLSLAGLGLKRTQVQLFADPGVSENVHHVAAHGAFGSFELTMRGRPLAANPKTSALTVYSVVRALLNRGRALVI
[6]
  Km: 2.2 ± 0.3 mM
  Vmax: 74 µmol/min/mg
  kcat: 33.8 ± 1.5 s⁻¹
[7]; [12]
  Km: 0.424 ± 0.010 mM
  Vmax: 32 µmol/min/mg
  kcat: 14.68 ± 0.1 s⁻¹

B4: Bradyrhizobium japonicum ADH-Bj (Bradyrhizobium diazoefficiens USDA 110) (protein)
chain: MGSSHHHHHHSSGDRRWKVMTDQTASSELRVAIAGLGSIGTKIAAALDQGEGLTLSAVAVRDPAKHQAFLNGLRRPPQVLPIDQLGEAADIVVECAPSSQLRAIVEPAVKRGKAAVVVSVGGLLDNFDLVDLARANGGRIIVPTGALIGLDAVNAAVIGTIHSVKMVTRKPIDGLKGAPFIVHNNIDIDTLREPLKLFEGTAREAAKGFPANLNVAVALSLAGVGPDRTSVQIWADPTVTRNVHRIEVEADSARFSMSIENIPSENPKTGLITALSVIALLRKQRATLCVGT
[7]; [13]
  Km: 10 ± 3 mM
  Vmax: 6.5 µmol/min/mg
  kcat: 3.33 ± 0.5 s⁻¹
  kcat/Km: 333 M⁻¹ s⁻¹
